Source: US20250326771A1, “PIPERAZINE DERIVATIVES USEFUL IN HIV THERAPY” (VIIV HEALTHCARE COMPANY, priority 2022, published 2025)
pIC50: −log10 of the molar value. Like-named read-outs stand apart in the source and are kept apart here.

Tests used:
cIAP1-BIR2 = cIAP1-BIR2 (Homo sapiens (Human), UniProt Q13490); assay: BIR binding assay (FRET competition), cIAP1 BIR2
In short: (§1)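 Compounds tested as 15-point, 3-fold series displacing 200 nM AlexaFluor647-labelled SMAC peptide from His-tagged BIR domain (cIAP1-BIR3 50 nM; cIAP1-BIR2 and cIAP2-BIR2 325 nM; XIAP-BIR3 100 nM), pH 7.4, 60 min. Eu-W1024 (2 nM) added 30 min; emission ratio fitted for IC50.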

cIAP2-BIR2 = cIAP2-BIR2 (Homo sapiens (Human), UniProt Q13489); assay: BIR binding assay (FRET competition), cIAP2 BIR2
Sequence of cIAP2-BIR2 (Q13489 158-242): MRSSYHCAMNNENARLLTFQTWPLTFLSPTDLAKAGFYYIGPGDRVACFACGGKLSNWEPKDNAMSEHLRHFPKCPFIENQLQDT
In short: as §1

XIAP-BIR2 = XIAP-BIR2 (Homo sapiens (Human), UniProt P98170); assay: BIR binding assay (FRET competition), XIAP BIR2; details: for IC50: read-out: XIAP BIR2 (pIC50) (converted)
Sequence of XIAP-BIR2 (P98170 124-240): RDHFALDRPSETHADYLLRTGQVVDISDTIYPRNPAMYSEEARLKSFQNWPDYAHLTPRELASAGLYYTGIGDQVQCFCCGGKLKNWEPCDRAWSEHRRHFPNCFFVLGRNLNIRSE
In short: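 Competitive TR-FRET used His-tagged XIAP-BIR2 (200 nM) and 200 nM AlexaFluor647-labelled AVPIAQKSE SMAC peptide in HEPES buffer pH 7.4 with CHAPS, glycerol and DTT, incubated 60 min before 30 min with 2 nM Eu-W1024. The 615/665 nm ratio from a 15-point, 3-fold series was fit with a four-parameter model for IC50/pIC50.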

[1] = test system: Jurkat HIV-luciferase clones; assay: Jurkat latency reversal assay; format: cell-based; details: Homo sapiens, 48 h; Jurkat latency reversal assay potency; read-out: Jurkat pEC50 (converted)
In short: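 EC50 and maximal activation versus vehicle were derived by four-parameter logistic regression of luciferase luminescence. The luminescence was induced in pooled Jurkat HIV-luciferase clones C16, 115 and N6 (5,000 cells/well) after 48 h at 37° C with duplicate 14-point, 3-fold dilutions starting at 10 μM (0.5% DMSO).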

XIAP-BIR3 = XIAP-BIR3 (Homo sapiens (Human), UniProt P98170); assay: BIR binding assay (FRET competition), XIAP BIR3; details: for XIAP BIR3 vs BIR2 separation window: fold separation (FS) for XIAP
Sequence of XIAP-BIR3 (P98170 241-356): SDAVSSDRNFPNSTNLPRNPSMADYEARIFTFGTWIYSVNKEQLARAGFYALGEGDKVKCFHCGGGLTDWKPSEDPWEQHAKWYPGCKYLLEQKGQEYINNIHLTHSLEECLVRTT
In short: as §1

cIAP1-BIR3 = cIAP1-BIR3 (Homo sapiens (Human), UniProt Q13490); assay: BIR binding assay (FRET competition), cIAP1 BIR3; details: for cIAP1 BIR3 vs BIR2 separation window: fold separation (FS) for cIAP1
Sequence of cIAP1-BIR3 (Q13490 253-363): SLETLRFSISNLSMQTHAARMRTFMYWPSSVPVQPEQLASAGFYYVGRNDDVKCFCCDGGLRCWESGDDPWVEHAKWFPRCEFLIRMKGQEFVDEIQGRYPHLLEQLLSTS
In short: as §1

cIAP2-BIR3 = cIAP2-BIR3 (Homo sapiens (Human), UniProt Q13489); assay: BIR binding assay (FRET competition), cIAP2 BIR3; details: for cIAP2 BIR3 vs BIR2 separation window: fold separation (FS) for cIAP2
Sequence of cIAP2-BIR3 (Q13489 238-349): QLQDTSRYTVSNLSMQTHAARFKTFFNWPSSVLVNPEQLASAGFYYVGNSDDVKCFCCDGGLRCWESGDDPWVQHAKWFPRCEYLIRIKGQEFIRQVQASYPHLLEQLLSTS

Sequence of cIAP1-BIR2 (Q13490 173-257): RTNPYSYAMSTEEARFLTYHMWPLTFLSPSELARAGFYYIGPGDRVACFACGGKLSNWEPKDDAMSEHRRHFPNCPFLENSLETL

SMILES	pIC50 (cIAP1-BIR2)	pIC50 (cIAP2-BIR2)	IC50 (XIAP-BIR2; FRET competition binding)	EC50 [1]	pIC50 (XIAP-BIR3)	XIAP BIR3 vs BIR2 separation window (XIAP-BIR3)	pIC50 (cIAP1-BIR3)	cIAP1 BIR3 vs BIR2 separation window (cIAP1-BIR3)	pIC50 (cIAP2-BIR3)	cIAP2 BIR3 vs BIR2 separation window (cIAP2-BIR3)	XIAP BIR2 (pIC50) (XIAP-BIR2; FRET competition binding)	pIC50 (XIAP-BIR2)
C[C@@H]1CN(CC(=O)N2CC(C)(C)c3[nH]c(=O)c(Cc4ccc(F)cc4)cc32)[C@@H](CN2CCC(CC(=O)N(C)Cc3ccc(CN(C)C(=O)CC4CCN(C[C@H]5CN[C@H](C)CN5CC(=O)N5CC(C)(C)c6[nH]c(=O)c(Cc7ccc(F)cc7)cc65)CC4)cc3)CC2)CN1 [Example 106, N,N′-(1,4-phenylenebis(methylene))bis(2-(1-(((2R,5R)-1-(2-(6-(4-fluorobenzyl)-3,3-dimethyl-5-oxo-2,3,4,5-tetrahydro-1H-pyrrolo[3,2-b]pyridin-1-yl)-2-oxoethyl)-5-methylpiperazin-2-yl)methyl)piperidin-4-yl)-N-methylacetamide)]	5.50 to 6.00	5.50 to 6.00	10 to 51.3 µM	0.0126 to 0.0631 µM	8.10 to 8.86	++++ (FS>10,000)	8.10 to 8.86	+++ (10,000>FS>1,000)	8.10 to 8.86	+++ (10,000>FS>1,000)	–	–
C[C@@H]1CN(CC(=O)N2CC(C)(C)c3[nH]c(=O)c(Cc4ccc(F)cc4)cc32)[C@@H](CN2CCC(COc3cccc(OCC4CCN(C[C@H]5CN[C@H](C)CN5CC(=O)N5CC(C)(C)c6[nH]c(=O)c(Cc7ccc(F)cc7)cc65)CC4)c3)CC2)CN1 [Example 107, 1,1′-(2,2′-((3R,3′R,6R,6′R)-((((1,3-phenylenebis(oxy))bis(methylene))bis(piperidine-4,1-diyl))bis(methylene))bis(3-methylpiperazine-6,1-diyl))bis(acetyl))bis(6-(4-fluorobenzyl)-3,3-dimethyl-1,2,3,4-tetrahydro-5H-pyrrolo[3,2-b]pyridin-5-one)]	5.50 to 6.00	4.29 to 5.00	10 to 51.3 µM	0.0126 to 0.0631 µM	7.80 to 8.10	++++ (FS>10,000)	7.80 to 8.10	+++ (10,000>FS>1,000)	8.10 to 8.86	++++ (FS>10,000)	–	–
C[C@@H]1CN(CC(=O)N2CC(C)(C)c3[nH]c(=O)c(Cc4ccc(F)cc4)cc32)[C@@H](CN2CCO[C@@H](C(=O)NCc3ccc(CNC(=O)[C@H]4CN(C[C@H]5CN[C@H](C)CN5CC(=O)N5CC(C)(C)c6[nH]c(=O)c(Cc7ccc(F)cc7)cc65)CCO4)cc3)C2)CN1 [Example 111, (2R,2′R)-N,N′-(1,4-phenylenebis(methylene))bis(4-(((2R,5R)-1-(2-(6-(4-fluorobenzyl)-3,3-dimethyl-5-oxo-2,3,4,5-tetrahydro-1H-pyrrolo[3,2-b]pyridin-1-yl)-2-oxoethyl)-5-methylpiperazin-2-yl)methyl)morpholine-2-carboxamide)]	5.00 to 5.50	5.00 to 5.50	10 to 51.3 µM	0.0126 to 0.0631 µM	6.30 to 7.50	+++ (10,000>FS>1,000)	7.80 to 8.10	+++ (10,000>FS>1,000)	7.80 to 8.10	+++ (10,000>FS>1,000)	–	–
C[C@@H]1CN(CC(=O)N2CC(C)(C)c3[nH]c(=O)c(Cc4ccc(F)cc4)cc32)[C@@H](CN2CCO[C@@H](COc3cccc(OC[C@H]4CN(C[C@H]5CN[C@H](C)CN5CC(=O)N5CC(C)(C)c6[nH]c(=O)c(Cc7ccc(F)cc7)cc65)CCO4)c3)C2)CN1 [Example 112, 1,1′-(2,2′-((3R,3′R,6R,6′R)-(((2R,2′R)-((1,3-phenylenebis(oxy))bis(methylene))bis(morpholine-2,4-diyl))bis(methylene))bis(3-methylpiperazine-6,1-diyl))bis(acetyl))bis(6-(4-fluorobenzyl)-3,3-dimethyl-1,2,3,4-tetrahydro-5H-pyrrolo[3,2-b]pyridin-5-one)]	5.00 to 5.50	5.50 to 6.00	10 to 51.3 µM	0.0126 to 0.0631 µM	7.50 to 7.80	+++ (10,000>FS>1,000)	7.80 to 8.10	+++ (10,000>FS>1,000)	7.80 to 8.10	+++ (10,000>FS>1,000)	–	–
C[C@@H]1CN(CC(=O)N2CC(C)(C)c3[nH]c(=O)c(Cc4ccc(F)cc4)cc32)[C@@H](CN2CCO[C@@H](COCCCCOC[C@H]3CN(C[C@H]4CN[C@H](C)CN4CC(=O)N4CC(C)(C)c5[nH]c(=O)c(Cc6ccc(F)cc6)cc54)CCO3)C2)CN1 [Example 113, 1,1′-(2,2′-((3R,3′R,6R,6′R)-(((2R,2′R)-((butane-1,4-diylbis(oxy))bis(methylene))bis(morpholine-2,4-diyl))bis(methylene))bis(3-methylpiperazine-6,1-diyl))bis(acetyl))bis(6-(4-fluorobenzyl)-3,3-dimethyl-1,2,3,4-tetrahydro-5H-pyrrolo[3,2-b]pyridin-5-one)]	5.00 to 5.50	5.00 to 5.50	10 to 51.3 µM	0.00049 to 0.0126 µM	7.50 to 7.80	++++ (FS>10,000)	7.80 to 8.10	+++ (10,000>FS>1,000)	7.80 to 8.10	+++ (10,000>FS>1,000)	–	–
C[C@@H]1CN(CC(=O)N2CC(C)(C)c3c2cc(Cc2ccc(F)cc2)c(=O)n3C)[C@@H](CN2CCO[C@H](COc3ccc(Cc4ccc(OC[C@@H]5CN(C[C@H]6CN[C@H](C)CN6CC(=O)N6CC(C)(C)c7c6cc(Cc6ccc(F)cc6)c(=O)n7C)CCO5)cc4)cc3)C2)CN1 [Example 115, 1,1′-(2,2′-((3R,3′R,6R,6′R)-(((2S,2'S)-(((methylenebis(4,1-phenylene))bis(oxy))bis(methylene))bis(morpholine-2,4-diyl))bis(methylene))bis(3-methylpiperazine-6,1-diyl))bis(acetyl))bis(6-(4-fluorobenzyl)-3,3,4-trimethyl-1,2,3,4-tetrahydro-5H-pyrrolo[3,2-b]pyridin-5-one)]	5.00 to 5.50	4.29 to 5.00	–	0.0631 to 0.316 µM	6.30 to 7.50	++ (1,000>FS>100)	6.30 to 7.50	+++ (10,000>FS>1,000)	6.30 to 7.50	+++ (10,000>FS>1,000)	++ (5.00<pIC50<=5.50)	–
C[C@@H]1CN(CC(=O)N2CC(C)(C)c3c2cc(Cc2ccc(F)cc2)c(=O)n3C)[C@@H](CN2CCO[C@H](COCc3ccc(COC[C@@H]4CN(C[C@H]5CN[C@H](C)CN5CC(=O)N5CC(C)(C)c6c5cc(Cc5ccc(F)cc5)c(=O)n6C)CCO4)cc3)C2)CN1 [Example 117, 1,1′-(2,2′-((3R,3′R,6R,6′R)-(((2S,2'S)-(((1,4-phenylenebis(methylene))bis(oxy))bis(methylene))bis(morpholine-2,4-diyl))bis(methylene))bis(3-methylpiperazine-6,1-diyl))bis(acetyl))bis(6-(4-fluorobenzyl)-3,3,4-trimethyl-1,2,3,4-tetrahydro-5H-pyrrolo[3,2-b]pyridin-5-one)]	5.00 to 5.50	5.00 to 5.50	10 to 51.3 µM	0.0631 to 0.316 µM	6.30 to 7.50	++++ (FS>10,000)	7.50 to 7.80	+++ (10,000>FS>1,000)	7.50 to 7.80	+++ (10,000>FS>1,000)	–	–
C[C@@H]1CN(CC(=O)N2CC(C)(C)c3[nH]c(=O)c(Cc4ccc(F)cc4)cc32)[C@@H](CN2CCO[C@H](C(=O)N3CCN(C(=O)[C@@H]4CN(C[C@H]5CN[C@H](C)CN5CC(=O)N5CC(C)(C)c6[nH]c(=O)c(Cc7ccc(F)cc7)cc65)CCO4)CC3)C2)CN1 [Example 118, 1,1′-(2,2′-((3R,3′R,6R,6′R)-(((2S,2'S)-(piperazine-1,4-dicarbonyl)bis(morpholine-2,4-diyl))bis(methylene))bis(3-methylpiperazine-6,1-diyl))bis(acetyl))bis(6-(4-fluorobenzyl)-3,3-dimethyl-1,2,3,4-tetrahydro-5H-pyrrolo[3,2-b]pyridin-5-one)]	5.50 to 6.00	5.50 to 6.00	–	0.0126 to 0.0631 µM	7.80 to 8.10	++++ (FS>10,000)	7.80 to 8.10	+++ (10,000>FS>1,000)	7.80 to 8.10	+++ (10,000>FS>1,000)	–	4.29 to 5.00
